According to patent US20250041429A1, “COMPOUND HAVING BTK PROTEIN DEGRADATION ACTIVITY, AND MEDICAL USES THEREOF” (UBIX THERAPEUTICS, INC., priority 2021, published 2025):

Target: T1, BTK protein (Homo sapiens, UniProt Q06187)
T1 construct: endogenous in cells; host or cells: TMD-8 cells
Assay: Measurement of BTK protein degradation ability in TMD-8 cells (Western blotting)
Format: cell-based
Settings: harvested after 24 hours; for BTK degradation (%) 1 nM: compound 1 nM; for BTK degradation (%) 10 nM: compound 10 nM; for BTK degradation (%) 100 nM: compound 100 nM
Protocol: TMD-8, RAMOS, or 293T BTK MUT (C481S) cells were treated with the synthesized compounds, and then the amount of BTK protein present in the cells was measured using Western blotting detection. The protocol for the experiment conducted using TMD-8 cells was as follows:
[Culture] TMD-8 cells were resuspended in RPMI1640 MEDIUM (Hyclone, SH30027.01), 10% FBS (Hyclone, SV30207.02), and 1% Penicillin-streptomycin (Welgene, LS 202-02) media, and 1 mL of this suspension was seeded in a 12-well plate at a cell concentration of 1×10^6/mL.
[Compound treatment] The 12-well plate was treated as follows: The 10 mM stock was serially diluted 1/10 with DMSO (3 μL+27 μL DMSO), and cells were treated with compounds at final concentrations of 0.1, 1, 10 μM or 0.0001, 0.001, 0.01, 0.1 μM, and harvested after 24 hours. In the negative control group, DMSO diluted 1/10 was added to the media. (3 μL DMSO+27 μL media)
[Harvest] Each well was pipetted with a 1 mL pipette, collected in a 1.5 mL microtube, and centrifuged (500 g, 5 min, 4° C.). After removing the supernatant, it was washed with PBS and centrifuged again (500 g, 5 min, 4° C.). The supernatant was removed and the pellet was collected.
[Cell lysis and Sample preparation] lysis buffer was prepared as follows: RIPA buffer (Biosesang, RC2038-050-00), 0.5 mM PMSF (SIGMA, P7626) and 1× Protease/Phosphatase Inhibitor (Cell signaling, 5872S) were added at 60-70 μL per well and left on ice for 30 minutes. (Vortexing at 0 and 30 minutes, respectively), followed by sonication (10 seconds pulse, 30 seconds rest, 5 cycles, 70% amplification) and centrifuge (15000 g, 15 min, 4° C.). Only the supernatant was collected and transferred to a new microtube. The samples were diluted by ½ with RIPA buffer in a 96-well plate. 200 μL of the mixture A:B=50:1 of the BCA Protein Assay Kit (iNtRON, 21071) was added each, stayed at 37° C. for 30 minutes, and cooled for 10 minutes. Afterwards, absorbance was measured at 562 nm using BioTek's SYNERGY H1 microplate reader. After making a sample by quantifying the protein using the measured value, it was boiled at 70° C. for 10 minutes. The sample buffer used at this time was a mixture of NuPAGE or Bolt 4× sample buffer (Invitrogen) and each 10× sample reducing agent according to the gel to be used. RIPA buffer was used for protein dilution.
[Western blotting detection method] The same amount of sample was loaded on NuPAGE or Bolt Bis-tris 4-12% gradient gel and run (200 V, 35 minutes). It was transferred to a […] NC membrane using Trans-blot Turbo (BIO-RAD) (1.3 A constant, 25 V limit, 15 minutes). For blocking, skim milk or Intercept Blocking Buffer (LI-COR, 927-60001): 0.1% TBST=1:1 was used at room temperature for 1 hour. Anti BTK Rabbit (1:1,000 in 5% skim milk/0.2% TBST, size: 77 kDa, Cell signaling Technology) was reacted at 4° C. for 16 hours or at room temperature for 2 hours. Anti GAPDH Rabbit (1:10,000 in 5% BSA/0.2% TBST, size: 36 kDa, GENETEX) and Anti β-actin mouse (1:10,000 in 5% BSA/0.2% TBST, RT, size: 43 kDa, GENETEX) were reacted at room temperature for 1 hour or 3 hours. The samples were washed 3 times with 0.5% TBST for 5 minutes each. Secondary antibodies, Anti-Rabbit IgG (1:5,000 in 5% Skim milk/TBST, CST), IRDye® 800CW Goat anti-Rabbit IgG Secondary Antibody (1:10,000 in 5% skim/TBST, RT 45 min), IRDye® 680RD Goat anti-Mouse IgG Secondary Antibody (1:10,000 in 5% skim/TBST, RT 45 min) were added depending on each sample and reacted for 45 minutes on a rocker at room temperature. The samples were washed 5 times with 0.5% TBST for 5 minutes each and detected with LI-COR's Odyssey. At this time, BTK was detected using SuperSignal West Pico PLUS Chemiluminescent Substrate or SuperSignal West femto Maximum Sensitivity Substrate, and house-keeping genes were detected as is.

T1 sequence (Q06187 whole entry): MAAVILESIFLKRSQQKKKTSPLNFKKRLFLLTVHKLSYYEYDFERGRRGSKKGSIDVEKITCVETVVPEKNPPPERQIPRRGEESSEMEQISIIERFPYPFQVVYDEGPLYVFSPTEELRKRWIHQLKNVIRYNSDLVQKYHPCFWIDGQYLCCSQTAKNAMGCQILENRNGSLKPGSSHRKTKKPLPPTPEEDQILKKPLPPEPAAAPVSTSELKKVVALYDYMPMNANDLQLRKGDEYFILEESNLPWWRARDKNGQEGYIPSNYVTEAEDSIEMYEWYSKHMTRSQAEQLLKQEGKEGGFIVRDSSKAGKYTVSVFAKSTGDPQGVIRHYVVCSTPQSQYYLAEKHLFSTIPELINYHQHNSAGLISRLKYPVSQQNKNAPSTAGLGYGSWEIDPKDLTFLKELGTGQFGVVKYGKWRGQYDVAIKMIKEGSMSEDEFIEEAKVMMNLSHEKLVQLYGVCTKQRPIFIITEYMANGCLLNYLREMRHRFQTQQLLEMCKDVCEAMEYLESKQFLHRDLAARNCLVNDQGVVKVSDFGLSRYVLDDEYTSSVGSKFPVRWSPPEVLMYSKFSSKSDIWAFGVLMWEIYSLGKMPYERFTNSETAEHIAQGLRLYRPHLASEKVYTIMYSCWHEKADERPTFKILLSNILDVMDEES

| SMILES | BTK degradation (%) 1 nM [%] | BTK degradation (%) 10 nM [%] | BTK degradation (%) 100 nM [%] |
| --- | --- | --- | --- |
| Cc1cc(-c2ccnc(Nc3ccc(C4CCN(CC5CCN(c6ccc(OC7CCC(=O)NC7=O)cc6)CC5)CC4)cc3)n2)ccc1CNC(=O)N1CC(OC(C)C)C1 (centres unmarked) [Example 47, N-(4-(2-((4-(1-((1-(4-((2,6-dioxopiperidin-3-yl)oxy)phenyl)piperidin-4-yl)methyl)piperidin-4-yl)phenyl)amino)pyrimidin-4-yl)-2-methylbenzyl)-3-isopropoxyazetidine-1-carboxamide] | 22.5 | 93.5 | 99.5 |
| Cc1c(NC(=O)c2cnn(C(C)(C)C)c2)cc(F)cc1-c1ccnc(Nc2ccc3c(c2)CN(CC2CCN(c4ccc5c(c4)C(=O)N(C4CCC(=O)NC4=O)C5=O)CC2)CC3)n1 (centres unmarked) [Example 5, 1-(tert-butyl)-N-(3-(2-((2-((1-(2-(2,6-dioxopiperidin-3-yl)-1,3-dioxoisoindolin-5-yl)piperidin-4-yl)methyl)-1,2,3,4-tetrahydroisoquinolin-7-yl)amino)pyrimidin-4-yl)-5-fluoro-2-methylphenyl)-1H-pyrazole-4-carboxamide] | – | −12 | −7 |
| Cc1cc(-c2ccnc(Nc3ccc(N4CCC(CN5CCN(c6ccc(NC7CCC(=O)NC7=O)cc6)CC5)CC4)cc3)n2)ccc1CNC(=O)N1CC(OC(C)C)C1 (centres unmarked) [Example 121, N-(4-(2-((4-(4-((4-(4-((2,6-dioxopiperidin-3-yl)amino)phenyl)piperazin-1-yl)methyl)piperidin-1-yl)phenyl)amino)pyrimidin-4-yl)-2-methylbenzyl)-3-isopropoxyazetidine-1-carboxamide] | 43.0 | 97.0 | 100.0 |
| Cc1cc(-c2ccnc(Nc3ccc(C4CCN(CC5CCN(c6ccc7c(c6)C(=O)N(C6CCC(=O)NC6=O)C7=O)CC5)CC4)nc3)n2)ccc1CNC(=O)N1CC(OC(C)C)C1 (centres unmarked) [Example 19, N-(4-(2-((6-(1-((1-(2-(2,6-dioxopiperidin-3-yl)-1,3-dioxoisoindolin-5-yl)piperidin-4-yl)methyl)piperidin-4-yl)pyridin-3-yl)amino)pyrimidin-4-yl)-2-methylbenzyl)-3-isopropoxyazetidine-1-carboxamide] | 48 | 93 | 99 |
| Cc1cc(-c2ccnc(Nc3ccc(N4CCN(CC5CN(c6ccc7c(c6)C(=O)N(C6CCC(=O)NC6=O)C7=O)C5)CC4)nc3)n2)ccc1CNC(=O)N1CC(OC(C)C)C1 (centres unmarked) [Example 18, N-(4-(2-((6-(4-((1-(2-(2,6-dioxopiperidin-3-yl)-1,3-dioxoisoindolin-5-yl)azetidin-3-yl)methyl)piperazin-1-yl)pyridin-3-yl)amino)pyrimidin-4-yl)-2-methylbenzyl)-3-isopropoxyazetidine-1-carboxamide] | 46 | 92 | 98.5 |
| Cc1cc(-c2ccnc(Nc3cnn(C4CCN(CC5CN(c6ccc7c(c6)C(=O)N(C6CCC(=O)NC6=O)C7=O)C5)CC4)c3)n2)ccc1CNC(=O)c1cnn(C(C)(C)C)c1 (centres unmarked) [Example 38, 1-(tert-butyl)-N-(4-(2-((1-(1-((1-(2-(2,6-dioxopiperidin-3-yl)-1,3-dioxoisoindolin-5-yl)azetidin-3-yl)methyl)piperidin-4-yl)-1H-pyrazol-4-yl)amino)pyrimidin-4-yl)-2-methylbenzyl)-1H-pyrazole-4-carboxamide] | 72.5 | 96 | 98.5 |
| Cc1cc(-c2ccnc(Nc3ccc(N4CCN(CC5CCN(c6ccc(N7CCC(=O)NC7=O)cc6F)CC5)CC4)cc3)n2)ccc1CNC(=O)c1cn(C(C)(C)C)nn1 [Example 73] | 43.0 | 91.5 | 97.0 |
| Cc1cc(-c2ccnc(Nc3ccc(N4CCC(C(=O)N5CCC(c6cccc(NC7CCC(=O)NC7=O)c6)CC5)CC4)cc3)n2)ccc1CNC(=O)N1CC(OC(C)C)C1 (centres unmarked) [Example 116, N-(4-(2-((4-(4-(4-(3-((2,6-dioxopiperidin-3-yl)amino)phenyl)piperidine-1-carbonyl)piperidin-1-yl)phenyl)amino)pyrimidin-4-yl)-2-methylbenzyl)-3-isopropoxyazetidine-1-carboxamide] | 1.0 | 56.0 | 96.5 |
| Cc1cc(-c2ccnc(Nc3ccc(N4CCN(CC5CN(C(=O)c6cccc(NC7CCC(=O)NC7=O)c6)C5)CC4)cc3)n2)ccc1CNC(=O)c1cn(C(C)(C)C)nn1 (centres unmarked) [Example 98, 1-(tert-butyl)-N-(4-(2-((4-(4-((1-(3-((2,6-dioxopiperidin-3-yl)amino)benzoyl)azetidin-3-yl)methyl)piperazin-1-yl)phenyl)amino)pyrimidin-4-yl)-2-methylbenzyl)-1H-1,2,3-triazole-4-carboxamide] | 71.0 | 95.5 | 98.5 |
| Cc1cc(-c2ccnc(Nc3ccc(N4CCN(CC5CN(c6cc7c(cc6F)C(=O)N(C6CCC(=O)NC6=O)C7=O)C5)CC4)cc3)n2)ccc1CNC(=O)N1CC(OC(C)C)C1 (centres unmarked) [Example 13, N-(4-(2-((4-(4-((1-(2-(2,6-dioxopiperidin-3-yl)-6-fluoro-1,3-dioxoisoindolin-5-yl)azetidin-3-yl)methyl)piperazin-1-yl)phenyl)amino)pyrimidin-4-yl)-2-methylbenzyl)-3-isopropoxyazetidine-1-carboxamide] | 38 | 91 | 99 |
| Cc1cc(-c2ccnc(Nc3cnn(C4CCN(CC5CN(c6ccc7c(c6)C(=O)N(C6CCC(=O)NC6=O)C7=O)C5)CC4)c3)n2)ccc1CNC(=O)c1cnn(C(C)C)c1 (centres unmarked) [Example 36, N-(4-(2-((1-(1-((1-(2-(2,6-dioxopiperidin-3-yl)-1,3-dioxoisoindolin-5-yl)azetidin-3-yl)methyl)piperidin-4-yl)-1H-pyrazol-4-yl)amino)pyrimidin-4-yl)-2-methylbenzyl)-1-isopropyl-1H-pyrazole-4-carboxamide] | 60 | 94 | 99 |
| Cc1cc(-c2ccnc(Nc3ccc(C4CCN(CC5CN(c6ccc7c(c6)C(=O)N(C6CCC(=O)NC6=O)C7=O)C5)CC4)cc3)n2)ccc1CNC(=O)c1cn(C(C)(C)C)nn1 (centres unmarked) [Example 46, 1-(tert-butyl)-N-(4-(2-((4-(1-((1-(2-(2,6-dioxopiperidin-3-yl)-1,3-dioxoisoindolin-5-yl)azetidin-3-yl)methyl)piperidin-4-yl)phenyl)amino)pyrimidin-4-yl)-2-methylbenzyl)-1H-1,2,3-triazole-4-carboxamide] | 46.5 | 91.0 | 98.0 |
